Numbers after ± are expanded uncertainties.
Key:
[1] = Molar enthalpy of transition or fusion; conditions: Crystal; DSC
[2] = for viscosity / mass density: 101.33 kPa, Liquid; for viscosity: Falling or rolling sphere viscometry; for mass density: Vibrating tube method; for Normal melting temperature: visual observation

## CCCCCCCC[n+]1cccc2ccccc21.O=S(=O)([N-]S(=O)(=O)C(F)(F)F)C(F)(F)F [1-octylquinolinium bis[(trifluoromethyl)sulfonyl]imide]
[1]
  Molar enthalpy of transition or fusion: 15 ± 0.406 kcal/mol
[2]; 323.15 K
  viscosity: 98.46 ± 3.5 mPa·s
  mass density: 1317.99 ± 6 kg/m3
[2]; 328.15 K
  viscosity: 77.27 ± 2.4 mPa·s
  mass density: 1313.82 ± 6 kg/m3
[2]; 333.15 K
  viscosity: 61.75 ± 1.8 mPa·s
  mass density: 1309.64 ± 5.9 kg/m3
[2]; 338.15 K
  viscosity: 50.06 ± 1.4 mPa·s
  mass density: 1305.46 ± 5.9 kg/m3
[2]; 343.15 K
  viscosity: 41.15 ± 1.2 mPa·s
  mass density: 1301.29 ± 5.8 kg/m3
[2]; 348.15 K
  viscosity: 34.22 ± 1 mPa·s
  mass density: 1297.14 ± 5.8 kg/m3
[2]; 353.15 K
  viscosity: 28.87 ± 0.85 mPa·s
  mass density: 1292.99 ± 5.8 kg/m3
[2]; 358.15 K
  viscosity: 24.7 ± 0.72 mPa·s
  mass density: 1288.85 ± 5.7 kg/m3
[2]; 363.15 K
  viscosity: 21.19 ± 0.62 mPa·s
  mass density: 1284.71 ± 5.7 kg/m3
[2]; Crystal, DTA
  Triple point temperature: 321.5 ± 0.5 K
[2]; Crystal
  Normal melting temperature: 48.2 ± 1.1 °C
[2]; Glass, DTA
  Glass transition temperature: -52.3 ± 10 °C

## c1ccccc1 [benzene]
[2]; Crystal
  Normal melting temperature: 5.5 ± 1.1 °C

Reference: the NIST ThermoML archive (doi:10.1016/j.jct.2011.12.037)
